Experimental data: patent publication US8163477B2, “Nuclease-based method for detecting and quantitating oligonucleotides” (Isis Pharmaceuticals, Inc, priority 2000, dated 2012)

Test: Plasma concentration after subcutaneous injection in mice (pharmacokinetic profile)
Format: in vivo
Conditions: 50 mg/kg subcutaneous
Procedure: FIG. 5 is a graph showing the pharmacokinetic profile of ISIS 22023 following 50 mg/kg subcutaneous injection in mice. Plasma samples were analyzed at various time points using the oligonucleotide detection method of the present invention.
Detection of ISIS 22023 after injection in mice ISIS 22023 (50 mg/kg) was injected subcutaneously into mice and the plasma concentration was determined at various times post-injection by the method described in Example 1. […] The predicted and observed half lives corresponded very well.

With “ISIS 2302: antisense oligonucleotide GCCCAAGCTGGCATCCGTCA (SEQ ID NO:2) (listed as DNA, chemistry not given here)” the elimination half-life was “very long”.
